Assay results reported in US20130195926A1, “MODULATION OF NITRIC OXIDE SIGNALING TO NORMALIZE TUMOR VASCULATURE” (The General Hospital Corporation, priority 2007, published 2013).

System: U87 gliomas
Assay: NO distribution in U87 gliomas by DAF-2T fluorescence (MPLSM)
Format: in vivo, mice
Details: U87 tumor with shRNA58 vs parental U87, cranial window, Rag-1-/- mice
Method: FIGS. 3A-B show microfluorographs depicting NO distribution in U87 gliomas grown in the cranial window in Rag-1^−/−. NO production was visualized by means of DAF-2T fluorescence 0, 20, 40 and 60 min after DAF-2 (0.5 mg/body) injection. Left column, micro-angiography with tetramethylrhodamine-dextran (2000 kDa). Middle column, representative DAF-2T microfluorography captured 60 min after the loading of DAF-2 in tumors. Right column, pseudocolor representation of DAF-2T microfluorographs. […] Bars indicate 100 μm. (A) NO distribution in parental U87MG (top row) or nNOS shRNA58-transfected-U87 (bottom row) tumors. […]
Vascular parameters such as functional vessel density (the total length of perfused microvessels per unit area) and vessel diameter were analyzed by tracing each vessel segment using NIH image 1.63 as described elsewhere (Kashiwagi, S., et al. 2005 J. Clin. Invest. 115, 1816-1827). Tissue distribution of NO was visualized using MPLSM and the NO-sensitive fluorescence probe 4,5-diaminofluorescein (DAF-2) (0.5 mg i.v. Daiichi Pure Chemicals Co. Ltd) as described previously (Kashiwagi, S., et al. 2005 J. Clin. Invest. 115, 1816-1827). NO converts DAF-2 to 4,5-diaminofluorescein triazolium (DAF-2T) increasing fluorescence by a factor of 200. The DAF-2 associated fluorescence images were captured 60 min after i.v. injection. […]

Substance: shRNA58: short-hairpin RNA for nNOS, CAAAGAGATCGACACCATC (sense), GATGGTGTCGATCTCTTTGTT (antisense), in pSilencer 3.1 H-1-hygro, stably transfected into U87MG
- DAF-associated fluorescence (NO distribution): predominantly localized in vascular region
